Key:
STS [1] = molecular target: T1, STS (Rattus norvegicus, UniProt P15589); assay: STS activity in rat livers 15 days after a single p.o. dose; type: in vivo; details: rat liver
T1 construct: from tissue; host or cells: rat liver
T1 sequence (P15589 20-577): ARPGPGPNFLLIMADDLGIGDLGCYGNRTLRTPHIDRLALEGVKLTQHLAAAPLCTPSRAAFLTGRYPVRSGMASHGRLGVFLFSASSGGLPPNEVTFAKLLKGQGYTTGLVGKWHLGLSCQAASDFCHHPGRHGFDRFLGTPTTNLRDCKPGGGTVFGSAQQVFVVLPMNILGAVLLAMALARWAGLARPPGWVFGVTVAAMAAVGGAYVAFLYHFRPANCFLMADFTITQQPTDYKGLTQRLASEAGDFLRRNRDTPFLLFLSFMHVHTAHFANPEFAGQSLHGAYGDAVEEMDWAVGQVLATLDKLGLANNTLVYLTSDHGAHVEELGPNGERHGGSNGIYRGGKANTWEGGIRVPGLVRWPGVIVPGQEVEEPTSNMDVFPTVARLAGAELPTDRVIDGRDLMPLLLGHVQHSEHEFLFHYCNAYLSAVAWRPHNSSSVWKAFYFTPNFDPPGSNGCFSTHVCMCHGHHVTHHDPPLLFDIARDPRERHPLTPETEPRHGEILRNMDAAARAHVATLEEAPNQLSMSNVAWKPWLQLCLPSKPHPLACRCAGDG

steroid sulphatase (STS) = molecular target: T2, steroid sulphatase (STS) (Homo sapiens, UniProt P08842); assay: IC50 for steroid sulphatase inhibition measured in JEG-3 cells; type: cell-based
T2 construct: endogenous in cells; host or cells: JEG-3 cells
T2 sequence (P08842 22-583): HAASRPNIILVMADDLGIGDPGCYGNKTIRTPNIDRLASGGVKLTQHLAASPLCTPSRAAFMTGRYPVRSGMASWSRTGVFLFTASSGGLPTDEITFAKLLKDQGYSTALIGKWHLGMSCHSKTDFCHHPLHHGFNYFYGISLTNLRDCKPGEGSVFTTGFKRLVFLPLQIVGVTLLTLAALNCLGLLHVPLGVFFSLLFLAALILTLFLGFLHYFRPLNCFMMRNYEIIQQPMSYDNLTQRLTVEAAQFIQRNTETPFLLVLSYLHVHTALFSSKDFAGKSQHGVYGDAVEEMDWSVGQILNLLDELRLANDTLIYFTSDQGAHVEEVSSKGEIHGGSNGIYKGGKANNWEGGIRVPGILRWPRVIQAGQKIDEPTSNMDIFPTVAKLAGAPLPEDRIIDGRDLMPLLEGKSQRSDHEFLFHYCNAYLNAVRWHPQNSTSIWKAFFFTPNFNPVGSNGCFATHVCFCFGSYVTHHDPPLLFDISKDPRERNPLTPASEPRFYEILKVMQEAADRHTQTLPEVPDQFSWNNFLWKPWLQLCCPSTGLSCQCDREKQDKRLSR

[2] = test system: MCF-7STS cells (MCF-7 cells over expressing STS); assay: Growth of E2S-stimulated MCF-7STS xenograft tumours in nude mice; type: in vivo; details: Study 2: 1 mg/kg p.o. once per week for 7 weeks
Description: Ovariectomised, athymic female MF-1 nude mice (nu/nu) (age 6-8 weeks) were obtained from Harlan Olac. Twenty four hours before the inoculation of MCF-7STS cells animals were injected s.c. with estradiol sulphate (E2S). On the day of inoculation 5×10^6 MCF-7STS cells (50 μl in Matrigel) were injected s.c. into the right flank of the mice. After cell inoculation mice were injected with E2S (100 μg/50 μl) and received another injection of these steroids 24 h later. Mice then received E2S 3 times per week until the end of the study. […] Tumour measurements and the weight of animals were recorded weekly. Samples of tumour and liver tissues together with blood were collected at a number of time points after the cessation of dosing.
Tumours were measured weekly and their volumes calculated using the equation length×width^2/2.
Student's t test was used to assess the significance of the differences in tumour volumes for the different groups.

STS [3] = molecular target: T3, STS (Mus musculus, UniProt P50427); assay: Liver STS activity in MCF-7STS xenograft mice; type: in vivo; details: Study 2: 1 mg/kg p.o. once per week
T3 construct: from tissue; host or cells: liver of MF-1 nude mice, homogenate
T3 sequence (P50427 23-624): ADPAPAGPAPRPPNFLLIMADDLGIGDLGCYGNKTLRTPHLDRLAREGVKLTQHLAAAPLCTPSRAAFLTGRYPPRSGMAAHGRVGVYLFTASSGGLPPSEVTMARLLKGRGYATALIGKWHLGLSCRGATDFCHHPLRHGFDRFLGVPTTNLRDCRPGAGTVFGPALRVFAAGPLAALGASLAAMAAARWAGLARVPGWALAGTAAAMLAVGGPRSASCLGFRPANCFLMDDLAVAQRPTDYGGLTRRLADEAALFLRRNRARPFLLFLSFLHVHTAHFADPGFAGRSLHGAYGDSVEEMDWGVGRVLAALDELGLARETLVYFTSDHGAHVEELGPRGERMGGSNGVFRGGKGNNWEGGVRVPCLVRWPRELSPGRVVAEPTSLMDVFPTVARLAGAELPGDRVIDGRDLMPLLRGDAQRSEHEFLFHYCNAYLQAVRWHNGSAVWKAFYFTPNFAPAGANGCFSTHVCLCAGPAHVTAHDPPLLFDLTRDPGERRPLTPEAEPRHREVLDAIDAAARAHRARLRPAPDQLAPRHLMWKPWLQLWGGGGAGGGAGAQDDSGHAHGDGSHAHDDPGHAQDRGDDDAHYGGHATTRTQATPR
Description: (§1) Ovariectomised, athymic female MF-1 nude mice (nu/nu) (age 6-8 weeks) were obtained from Harlan Olac. Twenty four hours before the inoculation of MCF-7STS cells animals were injected s.c. with estradiol sulphate (E2S). On the day of inoculation 5×10^6 MCF-7STS cells (50 μl in Matrigel) were injected s.c. into the right flank of the mice. After cell inoculation mice were injected with E2S (100 μg/50 μl) and received another injection of these steroids 24 h later. Mice then received E2S 3 times per week until the end of the study. When tumours had reached approximately 80 mm^3 dosing was initiated with compounds being administered orally (100 μl; vehicle 10% THF: 90% propylene glycol) at 1 mg/kg. Tumour measurements and the weight of animals were recorded weekly. Samples of tumour and liver tissues together with blood were collected at a number of time points after the cessation of dosing.
Samples of tumour or liver tissues were homogenised in phosphate buffered saline (pH 7.4 containing 250 mM sucrose). Duplicate aliquots were incubated for 4 h with [^3H-E1S] […] An aliquot of the toluene was removed and the ^3H and ^14C radioactivity measured by liquid scintillation spectrometry. The mass of oestrone sulphate hydrolysed was calculated form the ^3H counts detected, corrected for procedural losses.

E1-STS [4] = molecular target: T4, E1-STS (Homo sapiens, UniProt P08842); design: dose or concentration left out as unconfirmed; details: intact MCF-7 cells; cited from earlier work
T4 construct: endogenous in cells; host or cells: intact MCF-7 cells
T4 sequence (P08842 22-583): T2 sequence (P08842 22-583)

E1-STS [5] = molecular target: T5, E1-STS (Rattus norvegicus, UniProt P15589); details: administered orally or subcutaneously; cited from earlier work
T5 construct: host or cells: rat liver
T5 sequence (P15589 20-577): T1 sequence (P15589 20-577)

[6] = rats; cited from earlier work
[7] = molecular target: T6, dehydroepiandrosterone sulphatase (DHA-STS) (Rattus norvegicus, UniProt P15589); details: administered orally or subcutaneously; cited from earlier work
T6 construct: host or cells: rat liver
T6 sequence (P15589 20-577): T1 sequence (P15589 20-577)

[8] = Plasma oestradiol concentrations by radioimmunoassay; type: in vivo, mice; details: Study 2: once weekly dosing, extended period after cessation of dosing
Description: as §1
Plasma oestradiol concentrations were measured by a specific radioimmunoassay procedure.

Compound: CCCN1C(=O)CC2C3CCc4cc(OS(N)(=O)=O)ccc4C3CC[C@]2(C)C1=O (some centres unmarked) [STX213]
- STS activity recovered (STS [1]): 69%
- inhibition of STS activity (STS [1]): 31%
- IC50 (steroid sulphatase (STS)): 0.18 nM

Compound: NS(=O)(=O)Oc1ccc2c3c(c(=O)oc2c1)CCCCC3 [STX64]
- tumour growth [2]: ineffective
- reduction of liver STS activity (STS [3]): 25-50%

Compound: C[C@]12CC[C@@H]3c4ccc(OS(N)(=O)=O)cc4CC[C@H]3[C@@H]1CCC2=O [EMATE, estrone-3-O-sulfamate]
- inhibition of E1-STS activity (E1-STS [4]): more than 99%
- inhibition of rat liver E1-STS activity (E1-STS [5]): 99%
- oral uterotrophic activity relative to oestradiol [6]: 100 times
- inhibition of rat liver DHA-STS activity [7]: 99%

Compound: C[C@]12CCC3c4ccc(OS(N)(=O)=O)cc4CCC3C1CC(=O)N(CCC(F)(F)F)C2=O (some centres unmarked) [STX1938, 3-Sulfomoyloxy-N-(3,3,3-trifluoropropyl)-16,17-seco-Estra-1,3,5(10)-triene-16,17-imide]
- inhibition of liver STS (STS [3]): almost complete inhibition
- plasma oestradiol levels [8]: significantly reduced

— patent US7968561B2, “Steroidal compounds as steroid sulphatase inhibitors” (Sterix Limited, priority 2006, dated 2011)
